Data reported in US10292390B2, “Inhibition and dispersion of bacterial biofilms with 2-aminobenzimidazole derivatives” (WISCONSIN ALUMNI RESEARCH FOUNDATION, priority 2011, dated 2019).

Legend:
[1] = solubility of stock in 95:5 M9+:LB media; format: physicochemical; settings: at 3.16 mM in 95:5 M9+:LB media
Protocol: Compounds 7 and 21 were evaluated for their ability to disperse preformed P. aeruginosa biofilms. For biofilm dispersion assessment, the static CV biofilm assay described above was modified in order to introduce compound to preformed biofilm for an additional incubation period. Solvent evaporation delivery of compound was not possible in this format; thus, stock solutions of compounds 7 and 21 were prepared in 95:5 M9+:LB media. Stocks of 7 and 21 were prepared at 3.16 mM and 1 mM, respectively (21 was insoluble at 3.16 mM). These stocks were diluted in series to obtain final concentrations as follows: 10^x μM where x=3.5 (7 only), 3, 2.5, 2, 1.5 (21 only), 1, 0, −1, or −2. Biofilms were allowed to form in microtiter plates in the absence of compound for 24 h, after which non-biofilm material was removed by dumping and washing as normal with sterile PBS. After the second washing, 200 μL of fresh 95:5 M9+:LB media containing compound at various concentrations was added to the wells, and the plates were incubated at 37° C. for an additional 24 h. […] Biofilm was fixed and quantified with CV as described above. The amount of dispersed biofilm was determined via comparison of the amount of biofilm at 48 h in the presence of compound versus the amount of biofilm in the “no compound” positive control at 24 h. […]

COS-7 cells = assay: fluorescence-based live/dead cytotoxicity assay; format: cell-based; settings: 24 hrs, live/dead staining
Protocol: Experiments to characterize the toxicity of exemplary compound 21 in a model mammalian cell line were conducted by incubating COS-7 African Green Monkey kidney cells (American Type Culture Collection, Manassas, Va.), a fibroblast-like mammalian cell line, in the presence of varying amounts of compound 21 and characterizing resulting levels of cell death using a standard fluorescence-based live/dead assay. Cells were seeded in 96-well plates by adding 200 μL of a suspension containing 50,000 cells/mL in cell culture media (Gibco® DMEM supplemented with 10% (v/v) fetal bovine serum, 100 units/mL penicillin, and 100 μg/mL streptomycin) in individual wells of a black-walled, clear-bottomed 96-well cell culture plate (Costar 3603). […] Fluorescence microscopy images of the wells were acquired using an Olympus IX70 microscope and Metavue version 7.1.2.0 software package (Molecular Devices, Toronto, Canada). Images were analyzed using Image J 1.43u (National Institutes of Health; Washington, D.C.). Live and dead cell results were also analyzed by averaging the mean fluorescence from a minimum of six images taken from three replicate samples and normalized to untreated (live control) and methanol-treated (dead control) wells (see FIG. 20).

## Cc1cc2nc(N)[nH]c2cc1C [Compound 21, 5,6-Dimethyl-2-aminobenzimidazole]
[1]
  solubility: insoluble
COS-7 cells
  concentrations at which not substantially cytotoxic: below 0.25 mM
